Laboratory results as given in PubChem BioAssay (NCI).
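48-hour exposure; five concentrations; linearly interpolated endpoints. Here, GI50 denotes the concentration required for 50% inhibition of growth. TGI marks complete inhibition of growth.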

Assays:
Experiment in all cases: NCI-60 cell line screen, 48 h
SNB-19 CNS = test system: SNB-19 CNS
OVCAR-4 ovarian = test system: OVCAR-4 ovarian
NCI-H460 lung = test system: NCI-H460 lung
BT-549 breast = test system: BT-549 breast
MALME-3M melanoma = test system: MALME-3M melanoma
SR leukemia = test system: SR leukemia
NCI-H522 lung = test system: NCI-H522 lung
HL-60(TB) leukemia = test system: HL-60(TB) leukemia
UACC-62 melanoma = test system: UACC-62 melanoma
SW-620 colon = test system: SW-620 colon
HCT-15 colon = test system: HCT-15 colon
OVCAR-3 ovarian = test system: OVCAR-3 ovarian
HOP-62 NSCLC = test system: HOP-62 NSCLC
U251 CNS = test system: U251 CNS
TK-10 renal = test system: TK-10 renal
NCI/ADR-RES ovarian = test system: NCI/ADR-RES ovarian
NCI-H23 lung = test system: NCI-H23 lung
SK-MEL-2 melanoma = test system: SK-MEL-2 melanoma
HCT-116 colon = test system: HCT-116 colon
A498 renal = test system: A498 renal
RXF 393 renal = test system: RXF 393 renal
SK-MEL-5 melanoma = test system: SK-MEL-5 melanoma
DU-145 prostate = test system: DU-145 prostate
SF-539 CNS = test system: SF-539 CNS
COLO 205 colon = test system: COLO 205 colon
HOP-92 NSCLC = test system: HOP-92 NSCLC
LOX IMVI melanoma = test system: LOX IMVI melanoma
T-47D breast = test system: T-47D breast
MDA-MB-435 = test system: MDA-MB-435
CCRF-CEM leukemia = test system: CCRF-CEM leukemia
MDA-MB-231 breast = test system: MDA-MB-231 breast
SF-295 CNS = test system: SF-295 CNS
MCF7 breast = test system: MCF7 breast
SN12C renal = test system: SN12C renal
RPMI-8226 leukemia = test system: RPMI-8226 leukemia
SK-OV-3 ovarian = test system: SK-OV-3 ovarian
HS 578T breast = test system: HS 578T breast
786-0 renal = test system: 786-0 renal
ACHN renal = test system: ACHN renal
IGROV1 ovarian = test system: IGROV1 ovarian
OVCAR-5 ovarian = test system: OVCAR-5 ovarian
OVCAR-8 ovarian = test system: OVCAR-8 ovarian
SK-MEL-28 melanoma = test system: SK-MEL-28 melanoma
SF-268 CNS = test system: SF-268 CNS
K-562 leukemia = test system: K-562 leukemia
KM12 colon = test system: KM12 colon
A549 NSCLC = test system: A549 NSCLC
HCC-2998 colon = test system: HCC-2998 colon
MOLT-4 leukemia = test system: MOLT-4 leukemia
CAKI-1 renal = test system: CAKI-1 renal
UACC-257 melanoma = test system: UACC-257 melanoma
EKVX NSCLC = test system: EKVX NSCLC
NCI-H226 lung = test system: NCI-H226 lung
PC-3 prostate = test system: PC-3 prostate
HT29 colon = test system: HT29 colon
M14 melanoma = test system: M14 melanoma
UO-31 renal = test system: UO-31 renal

`Nc1nc(N)c2cc(CNc3ccc(C(=O)NC(CC(=O)O)C(=O)O)cc3)ccc2n1` (stereo unspecified) showed a GI50 (SNB-19 CNS) of 2.16 µM, a TGI (SNB-19 CNS) greater than 100 µM and a GI50 (OVCAR-4 ovarian) greater than 100 µM. It also gave a TGI (OVCAR-4 ovarian) greater than 100 µM, a GI50 (NCI-H460 lung) of 0.0492 µM and a TGI (NCI-H460 lung) greater than 100 µM. For the same molecule, the GI50 (BT-549 breast) was 0.429 µM, the TGI (BT-549 breast) was greater than 100 µM and the TGI (MALME-3M melanoma) was greater than 100 µM. The TGI (SR leukemia) was greater than 100 µM, the TGI (NCI-H522 lung) was greater than 100 µM and the GI50 (HL-60(TB) leukemia) was 0.0325 µM. For the same molecule, the TGI (HL-60(TB) leukemia) was greater than 100 µM, the GI50 (UACC-62 melanoma) was 0.218 µM and the TGI (UACC-62 melanoma) was greater than 100 µM. The GI50 (SW-620 colon) was 0.0432 µM, the TGI (SW-620 colon) was greater than 100 µM and the GI50 (HCT-15 colon) was 0.049 µM. It also gave a TGI (HCT-15 colon) greater than 100 µM, a GI50 (OVCAR-3 ovarian) of 3.83 µM and a TGI (OVCAR-3 ovarian) greater than 100 µM. It also gave a GI50 (HOP-62 NSCLC) of 0.196 µM, a TGI (HOP-62 NSCLC) greater than 100 µM and a GI50 (U251 CNS) of 0.2 µM. For the same molecule, the TGI (U251 CNS) was greater than 100 µM, the TGI (TK-10 renal) was greater than 100 µM and the GI50 (NCI/ADR-RES ovarian) was 0.126 µM. The TGI (NCI/ADR-RES ovarian) was greater than 100 µM, the GI50 (NCI-H23 lung) was 0.311 µM and the TGI (NCI-H23 lung) was greater than 100 µM. It also gave a TGI (SK-MEL-2 melanoma) greater than 100 µM, a GI50 (HCT-116 colon) of 0.026 µM and a TGI (HCT-116 colon) greater than 100 µM. The TGI (A498 renal) was greater than 100 µM, the GI50 (RXF 393 renal) was greater than 100 µM and the TGI (RXF 393 renal) was greater than 100 µM. For the same molecule, the GI50 (SK-MEL-5 melanoma) was 0.34 µM, the TGI (SK-MEL-5 melanoma) was greater than 100 µM and the GI50 (DU-145 prostate) was 0.17 µM. The TGI (DU-145 prostate) was greater than 100 µM, the GI50 (SF-539 CNS) was 0.162 µM and the TGI (SF-539 CNS) was greater than 100 µM. For the same molecule, the GI50 (COLO 205 colon) was 3.4 µM, the TGI (COLO 205 colon) was greater than 100 µM and the GI50 (HOP-92 NSCLC) was greater than 41 µM. The TGI (HOP-92 NSCLC) was greater than 100 µM, the GI50 (LOX IMVI melanoma) was 0.0434 µM and the TGI (LOX IMVI melanoma) was greater than 100 µM. For the same molecule, the GI50 (T-47D breast) was greater than 100 µM, the TGI (T-47D breast) was greater than 100 µM and the GI50 (MDA-MB-435) was 0.0589 µM. For the same molecule, the TGI (MDA-MB-435) was greater than 100 µM, the GI50 (CCRF-CEM leukemia) was 0.0839 µM and the TGI (CCRF-CEM leukemia) was greater than 100 µM. For the same molecule, the GI50 (MDA-MB-231 breast) was greater than 83.7 µM, the TGI (MDA-MB-231 breast) was greater than 100 µM and the GI50 (SF-295 CNS) was 0.0611 µM. For the same molecule, the GI50 (MCF7 breast) was 0.0621 µM, the TGI (MCF7 breast) was greater than 100 µM and the GI50 (SN12C renal) was 0.211 µM. It also gave a TGI (SN12C renal) greater than 100 µM, a GI50 (RPMI-8226 leukemia) of 0.694 µM and a TGI (RPMI-8226 leukemia) greater than 100 µM. The GI50 (SK-OV-3 ovarian) was 1.3 µM, the TGI (SK-OV-3 ovarian) was greater than 100 µM and the GI50 (HS 578T breast) was greater than 55.4 µM. For the same molecule, the TGI (HS 578T breast) was greater than 100 µM, the GI50 (786-0 renal) was 0.103 µM and the TGI (786-0 renal) was greater than 100 µM. The GI50 (ACHN renal) was 0.18 µM, the TGI (ACHN renal) was greater than 100 µM and the GI50 (IGROV1 ovarian) was 0.187 µM. For the same molecule, the TGI (IGROV1 ovarian) was greater than 100 µM, the TGI (OVCAR-5 ovarian) was greater than 100 µM and the GI50 (OVCAR-8 ovarian) was 0.104 µM. For the same molecule, the TGI (OVCAR-8 ovarian) was greater than 100 µM, the TGI (SK-MEL-28 melanoma) was greater than 100 µM and the GI50 (SF-268 CNS) was 0.174 µM. It also gave a TGI (SF-268 CNS) greater than 100 µM, a GI50 (K-562 leukemia) of 0.0359 µM and a TGI (K-562 leukemia) greater than 100 µM. For the same molecule, the GI50 (KM12 colon) was 0.0817 µM, the TGI (KM12 colon) was greater than 100 µM and the GI50 (A549 NSCLC) was 0.0578 µM. For the same molecule, the TGI (A549 NSCLC) was greater than 100 µM, the GI50 (HCC-2998 colon) was 0.281 µM and the TGI (HCC-2998 colon) was greater than 82 µM. For the same molecule, the GI50 (MOLT-4 leukemia) was 0.825 µM, the TGI (MOLT-4 leukemia) was greater than 100 µM and the GI50 (CAKI-1 renal) was 0.108 µM. It also gave a TGI (CAKI-1 renal) greater than 100 µM, a GI50 (UACC-257 melanoma) greater than 100 µM and a TGI (UACC-257 melanoma) greater than 100 µM. For the same molecule, the TGI (EKVX NSCLC) was greater than 100 µM, the TGI (NCI-H226 lung) was greater than 100 µM and the TGI (PC-3 prostate) was greater than 100 µM. For the same molecule, the GI50 (HT29 colon) was 0.0594 µM, the TGI (HT29 colon) was greater than 100 µM and the GI50 (M14 melanoma) was 0.119 µM. It also gave a TGI (M14 melanoma) greater than 87.7 µM, a GI50 (UO-31 renal) of 0.358 µM and a TGI (UO-31 renal) greater than 100 µM.

`COC(=O)[C@@H](Cc1ccccc1)NNC(=O)OC(C)(C)C` was tested, and the TGI (OVCAR-4 ovarian) was greater than 100 µM, the TGI (NCI-H460 lung) was greater than 100 µM and the TGI (BT-549 breast) was greater than 100 µM. For the same molecule, the TGI (MALME-3M melanoma) was greater than 100 µM, the TGI (SR leukemia) was greater than 100 µM and the TGI (NCI-H522 lung) was greater than 100 µM. For the same molecule, the TGI (HL-60(TB) leukemia) was greater than 100 µM, the TGI (UACC-62 melanoma) was greater than 100 µM and the TGI (SW-620 colon) was greater than 100 µM. It also gave a TGI (HCT-15 colon) greater than 100 µM, a TGI (OVCAR-3 ovarian) greater than 100 µM and a TGI (HOP-62 NSCLC) greater than 100 µM. For the same molecule, the TGI (U251 CNS) was greater than 100 µM, the TGI (TK-10 renal) was greater than 100 µM and the TGI (NCI/ADR-RES ovarian) was greater than 100 µM. The TGI (NCI-H23 lung) was greater than 100 µM, the TGI (HCT-116 colon) was greater than 100 µM and the TGI (A498 renal) was greater than 100 µM. The TGI (RXF 393 renal) was greater than 100 µM, the TGI (SK-MEL-5 melanoma) was greater than 100 µM and the TGI (DU-145 prostate) was greater than 100 µM. The TGI (SF-539 CNS) was greater than 100 µM, the TGI (COLO 205 colon) was greater than 100 µM and the TGI (LOX IMVI melanoma) was greater than 100 µM. It also gave a TGI (T-47D breast) greater than 100 µM, a TGI (MDA-MB-435) greater than 100 µM and a TGI (CCRF-CEM leukemia) greater than 100 µM. For the same molecule, the TGI (MDA-MB-231 breast) was greater than 100 µM, the TGI (SF-295 CNS) was greater than 100 µM and the TGI (MCF7 breast) was greater than 100 µM. The TGI (SN12C renal) was greater than 100 µM, the TGI (RPMI-8226 leukemia) was greater than 100 µM and the TGI (SK-OV-3 ovarian) was greater than 100 µM. The TGI (HS 578T breast) was greater than 100 µM, the TGI (786-0 renal) was greater than 100 µM and the TGI (ACHN renal) was greater than 100 µM. For the same molecule, the TGI (IGROV1 ovarian) was greater than 100 µM, the TGI (OVCAR-5 ovarian) was greater than 100 µM and the TGI (OVCAR-8 ovarian) was greater than 100 µM. For the same molecule, the TGI (SK-MEL-28 melanoma) was greater than 100 µM, the TGI (SF-268 CNS) was greater than 100 µM and the TGI (K-562 leukemia) was greater than 100 µM. The TGI (KM12 colon) was greater than 100 µM, the TGI (A549 NSCLC) was greater than 100 µM and the TGI (HCC-2998 colon) was greater than 100 µM. It also gave a TGI (MOLT-4 leukemia) greater than 100 µM, a TGI (UACC-257 melanoma) greater than 100 µM and a TGI (EKVX NSCLC) greater than 100 µM. The TGI (PC-3 prostate) was greater than 100 µM.
